Measurements taken from ChEMBL document CHEMBL4422615, “Novel non-xanthine antagonist of the A2B adenosine receptor: From HTS hit to lead structure” (Eur J Med Chem, 2019).
In brackets after ≈: the same amount, converted by molar mass. Activity calls are given as the source filed them. The calls are words filed in the database; no cut-off is given here.

Tests used:
[1] = Aqueous solubility of the compound in phosphate buffer at pH 6.5 after 24 hrs by LC/MS/MS analysis; format: physicochemical
[2] = Fraction unbound in dog plasma by equilibrium dialysis method; format: ADME, cell-free, Canis lupus familiaris
[3] = Fraction unbound in mouse plasma by equilibrium dialysis method; format: ADME, cell-free
Cytochrome P450 2C8 = biological target: T1, Cytochrome P450 2C8 (Homo sapiens, UniProt P10632); test: Inhibition of CYP2C8 in human liver microsomes using amodiaquine as substrate after 15 mins in presence of NADPH by LC-MS/MS analysis; format: ADME
T1 sequence (P10632 whole entry): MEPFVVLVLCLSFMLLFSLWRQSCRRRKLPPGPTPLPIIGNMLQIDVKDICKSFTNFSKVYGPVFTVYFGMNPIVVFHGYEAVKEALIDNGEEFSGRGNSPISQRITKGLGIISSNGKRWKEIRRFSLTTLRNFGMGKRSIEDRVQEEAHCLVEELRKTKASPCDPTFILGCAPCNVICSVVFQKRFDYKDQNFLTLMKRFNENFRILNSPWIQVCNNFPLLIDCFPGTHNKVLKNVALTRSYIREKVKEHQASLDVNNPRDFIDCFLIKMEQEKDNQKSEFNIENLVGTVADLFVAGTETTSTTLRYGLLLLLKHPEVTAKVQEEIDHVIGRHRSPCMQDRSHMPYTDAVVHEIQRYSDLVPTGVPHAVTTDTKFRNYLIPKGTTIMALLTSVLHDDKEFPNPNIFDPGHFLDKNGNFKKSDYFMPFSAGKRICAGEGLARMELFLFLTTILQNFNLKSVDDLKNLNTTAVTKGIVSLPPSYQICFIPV

Cytochrome P450 3A4 = Cytochrome P450 3A4 (Homo sapiens, UniProt P08684); test: Time dependent inhibition of human liver microsomes CYP3A4 using midazolam as substrate in presence of NADPH by LC-MS/MS analysis; format: ADME
[4] = Blood clearance in human by measuring intrinsic clearance in human liver microsomes by MS/MS analysis; format: ADME
[5] = Apparent permeability from apical side to basolateral side in human Caco2 cells; format: ADME, cell-based; conditions: Caco-2
Mus musculus [6] = test: Antifibrotic activity in FITC-induced C57BL/6J mouse pulmonary fibrosis model assessed as reduction in lung weight at 100 to 500 mg/kg, bid administered via gavage pretreated for 45 mins before FITC addition until 72 hrs after FITC application; format: functional, organism-based
Mus musculus [7] = test: Antifibrotic activity in FITC-induced C57BL/6J mouse pulmonary fibrosis model assessed as reduction in osteopontin level in BALF at 100 to 500 mg/kg, bid administered via gavage pretreated for 45 mins before FITC addition until 72 hrs after FITC application by ELISA; format: functional, organism-based
[8] = biological target: T2, Nuclear receptor subfamily 1 group I member 2 (Homo sapiens, UniProt O75469); test: Activation of PXR in human HepG2 cells assessed as induction of CYP3A4 expression by luciferase reporter gene assay; format: ADME, cell-based
T2 sequence (O75469 whole entry): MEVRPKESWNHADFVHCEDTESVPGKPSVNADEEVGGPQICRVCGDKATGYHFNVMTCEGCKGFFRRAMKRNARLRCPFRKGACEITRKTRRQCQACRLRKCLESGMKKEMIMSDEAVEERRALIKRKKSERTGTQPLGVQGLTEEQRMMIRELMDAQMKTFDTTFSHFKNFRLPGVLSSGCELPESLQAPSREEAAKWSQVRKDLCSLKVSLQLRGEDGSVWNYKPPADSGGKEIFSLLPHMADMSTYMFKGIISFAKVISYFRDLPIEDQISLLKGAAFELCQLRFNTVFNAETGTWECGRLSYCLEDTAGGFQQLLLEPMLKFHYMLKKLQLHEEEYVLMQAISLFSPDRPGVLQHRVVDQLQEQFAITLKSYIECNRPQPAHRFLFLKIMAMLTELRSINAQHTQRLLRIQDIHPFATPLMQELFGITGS

Mus musculus [9] = test: Antifibrotic activity in FITC-induced C57BL/6J mouse pulmonary fibrosis model assessed as reduction in IL-6 level in lung tissue homogenate at 100 to 500 mg/kg, bid administered via gavage pretreated for 45 mins before FITC addition until 72 hrs after FITC application by ELISA; format: functional, organism-based
[10] = Clearance in mouse plasma at 0.3 mg/kg, iv administered as bolus dose by HPLC-MS/MS analysis; format: ADME, organism-based
[11] = MRT in mouse at 0.3 mg/kg, iv administered as bolus dose by HPLC-MS/MS analysis; format: ADME, organism-based; conditions: in vivo
[12] = Clearance in rat blood at 0.3 mg/kg, iv administered as bolus dose by HPLC-MS/MS analysis; format: ADME, organism-based
[13] = Volume of distribution at steady state in rat at 0.3 mg/kg, iv administered as infusion for 15 mins by HPLC-MS/MS analysis; format: ADME, organism-based; conditions: in vivo, read-out: Vdss
[14] = MRT in rat at 0.3 mg/kg, iv administered as infusion for 15 mins by HPLC-MS/MS analysis; format: ADME, organism-based; conditions: in vivo
[15] = Half life in rat at 0.3 mg/kg, iv administered as infusion for 15 mins by HPLC-MS/MS analysis; format: ADME, organism-based; conditions: in vivo
[16] = Oral bioavailability in rat at 1 mg/kg for 15 mins by HPLC-MS/MS analysis; format: ADME, organism-based; conditions: in vivo
[17] = Dose normalized Cmax in rat at 1 mg/kg, po for 15 mins by HPLC-MS/MS analysis; format: ADME, organism-based; conditions: in vivo, 0.25 h
Adenosine receptor A2a [18] = biological target: Adenosine receptor A2a (Mus musculus, UniProt Q60613); test: Antagonist activity at recombinant mouse A2A adenosine receptor expressed in CHO cells after 3 to 4 hrs by luciferase reporter gene assay; format: cell-based
Adenosine receptor A3 = biological target: T3, Adenosine receptor A3 (Mus musculus, UniProt Q61618); test: Antagonist activity at recombinant mouse A3 adenosine receptor expressed in CHO cells after 3 to 4 hrs by luciferase reporter gene assay; format: cell-based
T3 sequence (Q61618 whole entry): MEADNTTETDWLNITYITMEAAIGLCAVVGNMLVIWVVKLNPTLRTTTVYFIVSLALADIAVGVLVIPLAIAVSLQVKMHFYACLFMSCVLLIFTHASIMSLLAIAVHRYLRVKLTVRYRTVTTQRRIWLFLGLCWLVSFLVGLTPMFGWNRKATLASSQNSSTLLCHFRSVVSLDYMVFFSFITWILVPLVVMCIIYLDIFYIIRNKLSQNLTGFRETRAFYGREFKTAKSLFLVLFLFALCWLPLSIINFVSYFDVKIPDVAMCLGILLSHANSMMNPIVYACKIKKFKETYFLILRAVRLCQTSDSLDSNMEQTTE

Adenosine receptor A2a [19] = biological target: Adenosine receptor A2a (Rattus norvegicus, UniProt P30543); test: Antagonist activity at recombinant rat A2A adenosine receptor expressed in CHO cells after 3 to 4 hrs by luciferase reporter gene assay; format: cell-based
Mus musculus [20] = test: Antifibrotic activity in silica-induced C57BL/6J mouse pulmonary fibrosis model assessed as reduction in total number of cells in BALF at 100 to 500 mg/kg, bid administered via gavage treated from day 1 until day 7 after silica application; format: functional, organism-based
[21] = Toxicity in silica-induced C57BL/6J mouse pulmonary fibrosis model assessed as change in body weight at 100 to 500 mg/kg, bid administered via gavage treated from day 1 until day 7 after silica application; format: organism-based; conditions: in vivo, po

Sequence of Adenosine receptor A2a (Mus musculus, UniProt Q60613) (Q60613 whole entry): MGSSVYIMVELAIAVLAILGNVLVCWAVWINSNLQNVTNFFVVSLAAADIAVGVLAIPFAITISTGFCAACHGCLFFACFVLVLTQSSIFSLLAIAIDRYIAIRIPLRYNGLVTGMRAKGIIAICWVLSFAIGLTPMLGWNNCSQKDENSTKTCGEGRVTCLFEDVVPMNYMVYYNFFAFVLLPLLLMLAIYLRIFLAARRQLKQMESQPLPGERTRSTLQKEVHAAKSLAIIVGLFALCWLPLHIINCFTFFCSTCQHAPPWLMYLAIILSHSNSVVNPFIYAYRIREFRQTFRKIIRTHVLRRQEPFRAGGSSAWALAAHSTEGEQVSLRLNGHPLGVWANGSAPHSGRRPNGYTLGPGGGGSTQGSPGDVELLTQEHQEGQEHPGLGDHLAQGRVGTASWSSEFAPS
Sequence of Cytochrome P450 3A4 (P08684 whole entry): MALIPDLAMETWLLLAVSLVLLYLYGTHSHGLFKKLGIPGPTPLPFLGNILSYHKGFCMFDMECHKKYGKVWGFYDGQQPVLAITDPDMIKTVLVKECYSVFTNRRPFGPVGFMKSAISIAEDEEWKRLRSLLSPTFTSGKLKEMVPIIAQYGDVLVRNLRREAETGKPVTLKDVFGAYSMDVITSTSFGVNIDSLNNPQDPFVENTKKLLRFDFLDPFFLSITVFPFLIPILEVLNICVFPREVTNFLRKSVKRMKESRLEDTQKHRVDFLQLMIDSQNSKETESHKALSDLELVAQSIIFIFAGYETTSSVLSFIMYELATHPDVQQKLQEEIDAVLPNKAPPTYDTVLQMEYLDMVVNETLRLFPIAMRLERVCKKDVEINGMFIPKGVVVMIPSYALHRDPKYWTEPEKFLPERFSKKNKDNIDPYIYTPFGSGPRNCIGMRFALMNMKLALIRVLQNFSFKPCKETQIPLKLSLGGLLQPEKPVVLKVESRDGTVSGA
Sequence of Adenosine receptor A2a (Rattus norvegicus, UniProt P30543) (P30543 whole entry): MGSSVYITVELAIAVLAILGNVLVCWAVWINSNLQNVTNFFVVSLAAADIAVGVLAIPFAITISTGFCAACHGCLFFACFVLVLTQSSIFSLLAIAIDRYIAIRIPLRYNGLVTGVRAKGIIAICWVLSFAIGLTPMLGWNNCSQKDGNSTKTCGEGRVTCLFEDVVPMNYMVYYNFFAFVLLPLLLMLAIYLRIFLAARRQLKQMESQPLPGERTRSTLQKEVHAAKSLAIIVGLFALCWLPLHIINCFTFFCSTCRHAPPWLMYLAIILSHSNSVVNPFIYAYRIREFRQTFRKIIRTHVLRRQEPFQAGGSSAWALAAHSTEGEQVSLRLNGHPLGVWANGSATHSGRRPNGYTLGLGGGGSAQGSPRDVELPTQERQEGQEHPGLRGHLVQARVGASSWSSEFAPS

solubility at 24 h [1]: 410 µg/mL (≈ 946 µM)
fraction unbound [2]: 0.54
fraction unbound [3]: 0.3
IC50 (Cytochrome P450 2C8): > 20000 nM
TDI (Cytochrome P450 3A4): Not Active
CLhep predicted [4]: 3.67 mL/min/kg
Papp A→B [5]: 48 ×10⁻⁶ cm/s
MEC [8]: 21 ×10⁻⁶ mol/L
clearance [10]: 10.2 mL/min/kg
MRT [11]: 0.65 h
clearance [12]: 23.3 mL/min/kg
Vd [13]: 1.5 L/kg
MRT [14]: 1.3 h
half-life [15]: 1.4 h
bioavailability [16]: 88%
Cmax/dose [17]: 0.33 kg/L
IC50 (Adenosine receptor A2a [18]): 470 nM
IC50 (Adenosine receptor A3): > 6700 nM
IC50 (Adenosine receptor A2a [19]): 750 nM
Structure (SMILES): CCn1c(=O)c2c(C)c(C(=O)N3CCC(O)CC3)sc2n(CCC(F)(F)F)c1=O
Activity (Mus musculus [6]): Active
Activity (Mus musculus [7]): Active
Activity (Mus musculus [9]): Active
Activity (Mus musculus [20]): inactive
Activity [21]: Non-Toxic
